# Test results published in ChEMBL document CHEMBL3400109, “Synthesis and biological evaluation of C-13' substituted 7'-homo-anhydrovinblastine derivatives” (Bioorg Med Chem Lett, 2015).
# Assays:
# [1] = Cytotoxicity against human HCT116 cells assessed as inhibition of cell proliferation after 72 hrs; format: functional, cell-based; details: HCT-116, 72 h
# [2] = Cytotoxicity against human U87 cells assessed as inhibition of cell proliferation after 72 hrs; format: functional, cell-based, U-87MG ATCC; details: U-87 MG
# K562 = assay: Cytotoxicity against human K562 cells assessed as inhibition of cell proliferation after 72 hrs; format: functional, cell-based; details: K562, 72 h
# Tubulin (Homo sapiens) = Tubulin (Homo sapiens) (UniProt P68371+Q9H4B7+P0DPH7+P68366+Q13509+Q71U36+P04350+Q3ZCM7+P07437+P68363+Q9BQE3+Q6PEY2+Q13885+Q9BVA1+Q9BUF5); assay: (§1) Inhibition of tubulin (unknown origin) polymerization at 10 mg/ml; format: protein-complex assay
# Tubulin [3] = assay: Inhibition of tubulin (unknown origin) polymerization; format: protein-complex assay, Homo sapiens
# Tubulin [4] = assay: as §1; format: protein-complex assay, Homo sapiens
inhibition (Tubulin (Homo sapiens)) [%],IC50 (Tubulin [3]) [nM],IC50 (Tubulin [4]) [nM],SMILES,IC50 [1] [nM],IC50 [2] [nM],IC50 (K562) [nM]
–,–,–,CC[C@]1(O)C[C@@H]2CN(CCc3c([nH]c4ccccc34)[C@@](C(=O)OC)(c3cc4c(cc3OC)N(C)[C@H]3[C@@](O)(C(=O)OC)[C@H](OC(C)=O)[C@]5(CC)C=CCN6CC[C@]43[C@@H]65)C2)C1 [VINBLASTINE],2,1,10
44,–,–,CCC1=CC2CN(C1)/C(C(=O)NC(C)C)=C(/C(=O)OC)Cc1c([nH]c3ccc(I)cc13)[C@@](C(=O)OC)(c1cc3c(cc1OC)N(C)[C@H]1[C@@](O)(C(=O)OC)[C@H](OC(C)=O)[C@]4(CC)C=CCN5CC[C@]31[C@@H]54)C2 (stereo partly specified),5000,3000,–
23,–,–,CCC1=CC2CN(/C=C(/C(=O)OC)Cc3c([nH]c4ccc(C)cc34)[C@@](C(=O)OC)(c3cc4c(cc3OC)N(C)[C@H]3[C@@](O)(C(=O)OC)[C@H](OC(C)=O)[C@]5(CC)C=CCN6CC[C@]43[C@@H]65)C2)C1 (stereo partly specified),50,11,20
23,–,–,CCC1=CC2CN(/C=C(/C(=O)OC)Cc3c([nH]c4ccc(Br)cc34)[C@@](C(=O)OC)(c3cc4c(cc3OC)N(C)[C@H]3[C@@](O)(C(=O)OC)[C@H](OC(C)=O)[C@]5(CC)C=CCN6CC[C@]43[C@@H]65)C2)C1 (stereo partly specified),3000,3000,500
27,–,–,C#Cc1ccc2[nH]c3c(c2c1)C/C(C(=O)OC)=C\N1CC(CC)=CC(C1)C[C@]3(C(=O)OC)c1cc2c(cc1OC)N(C)[C@H]1[C@@](O)(C(=O)OC)[C@H](OC(C)=O)[C@]3(CC)C=CCN4CC[C@]21[C@@H]43 (stereo partly specified),2500,1600,600
–,700,–,CCC1=C[C@@H]2CN(C1)Cc1c([nH]c3ccccc13)[C@@](C(=O)OC)(c1cc3c(cc1OC)N(C)[C@H]1[C@@](O)(C(=O)OC)[C@H](OC(C)=O)[C@]4(CC)C=CCN5CC[C@]31[C@@H]54)C2 [VINORELBINE],15,3.5,–
25,–,–,CCC1=CC2CN(C1)/C(C(=O)NC(C)C)=C(/C(=O)OC)Cc1c([nH]c3ccc(C=O)cc13)[C@@](C(=O)OC)(c1cc3c(cc1OC)N(C)[C@H]1[C@@](O)(C(=O)OC)[C@H](OC(C)=O)[C@]4(CC)C=CCN5CC[C@]31[C@@H]54)C2 (stereo partly specified),47,119,16
11,–,–,CCC1=CC2CN(/C=C(/C(=O)OC)Cc3c([nH]c4ccc(C=O)cc34)[C@@](C(=O)OC)(c3cc4c(cc3OC)N(C)[C@H]3[C@@](O)(C(=O)OC)[C@H](OC(C)=O)[C@]5(CC)C=CCN6CC[C@]43[C@@H]65)C2)C1 (stereo partly specified),270,23,40
16,–,–,C#Cc1ccc2[nH]c3c(c2c1)C/C(C(=O)OC)=C(/C(=O)NC(C)C)N1CC(CC)=CC(C1)C[C@]3(C(=O)OC)c1cc2c(cc1OC)N(C)[C@H]1[C@@](O)(C(=O)OC)[C@H](OC(C)=O)[C@]3(CC)C=CCN4CC[C@]21[C@@H]43 (stereo partly specified),3000,2000,600
–,–,6200,CCC1=CC2CN(/C=C(/C(=O)OC)Cc3c([nH]c4ccc(I)cc34)[C@@](C(=O)OC)(c3cc4c(cc3OC)N(C)[C@H]3[C@@](O)(C(=O)OC)[C@H](OC(C)=O)[C@]5(CC)C=CCN6CC[C@]43[C@@H]65)C2)C1 (stereo partly specified),7000,5000,1000
0,–,–,CCC1=CC2CN(C1)/C(C(=O)NC(C)C)=C(/C(=O)OC)Cc1c([nH]c3ccc(C)cc13)[C@@](C(=O)OC)(c1cc3c(cc1OC)N(C)[C@H]1[C@@](O)(C(=O)OC)[C@H](OC(C)=O)[C@]4(CC)C=CCN5CC[C@]31[C@@H]54)C2 (stereo partly specified),20,33,1
